Test results reported in patent US7335659B2, “Substituted 10-aryl-11H-benzo[b]fluorenes and 7-aryl-5, 6-dihydro-benzo[a]anthracenes for selective effects on estrogen receptors” (N.V. Organon, priority 2002, dated 2008).

Target: T1, human estrogen receptor β receptor (hERβ) (Homo sapiens, UniProt Q92731)
T1 construct: expressed in transfected cells; host or cells: Chinese hamster ovary (CHO) cells, stably co-transfected with hERβ, rat oxytocin promoter and luciferase reporter gene
Test: Antiestrogenic activity in in vitro bioassay with recombinant CHO cells co-transfected with hERβ, rat oxytocin promoter and luciferase reporter gene
Assay type: cell-based
Conditions: potency ratio relative to standard ICI 164.384; inhibition of estradiol-induced luciferase transactivation via hERβ in CHO cells
Experimental: The estrogenic and antiestrogenic activity of compounds is determined in an in vitro bioassay with recombinant Chinese hamster ovary (CHO) cells stably co-transfected with the human estrogen receptor α (hERα) or β receptor (hERβ), the rat oxytocin promoter (RO) and the luciferase reporter gene (LUC). The estrogenic activity (potency ratio) of a test compound to stimulate the transactivation of the enzyme luciferase mediated via the estrogen receptors hERα or hERβ is compared with the standard estrogen estradiol. The antiestrogenic activity (potency ratio) of a test compound to inhibit the transactivation of the enzyme luciferase mediated via the estrogen receptors hERα or hERβ by the estrogen estradiol is compared with the standard ICI 164.384 (=(7α, 17β)-N-butyl-3,17-dihydroxy-N-methylestra-1,3,5(10)-triene-7-undecanamide).

T1 sequence (Q92731 whole entry): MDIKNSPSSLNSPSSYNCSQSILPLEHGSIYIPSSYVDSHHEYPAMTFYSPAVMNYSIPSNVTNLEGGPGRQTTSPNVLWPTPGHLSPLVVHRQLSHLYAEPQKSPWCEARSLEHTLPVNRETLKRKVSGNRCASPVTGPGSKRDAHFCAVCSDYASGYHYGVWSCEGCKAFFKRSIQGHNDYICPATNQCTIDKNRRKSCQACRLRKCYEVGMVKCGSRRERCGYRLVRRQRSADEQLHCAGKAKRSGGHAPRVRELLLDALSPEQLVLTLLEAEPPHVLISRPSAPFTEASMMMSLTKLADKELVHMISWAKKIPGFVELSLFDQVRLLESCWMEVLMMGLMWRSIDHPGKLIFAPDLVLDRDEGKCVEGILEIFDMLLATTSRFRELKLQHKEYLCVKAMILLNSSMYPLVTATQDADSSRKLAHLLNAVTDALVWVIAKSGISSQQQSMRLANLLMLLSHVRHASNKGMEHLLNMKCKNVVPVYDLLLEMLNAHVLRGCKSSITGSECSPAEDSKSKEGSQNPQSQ

SMILES | ERβ antagonism
Oc1ccc2c(c1)Cc1c-2cc2ccc(O)cc2c1-c1ccc(Cl)cc1 [Compound 5a] | + (>5% (relative to ICI): +)
Oc1ccc2c(c1)Cc1c-2cc2ccc(O)cc2c1-c1ccc2ccccc2c1 [Compound 5b] | + (>5% (relative to ICI): +)
COc1cccc(-c2c3c(cc4ccc(O)cc24)-c2ccc(O)cc2C3)c1 [Compound 5c] | + (>5% (relative to ICI): +)
Oc1ccc2c(c1)Cc1c-2cc2ccc(O)cc2c1-c1cccc(C(F)(F)F)c1 [Compound 5d] | + (>5% (relative to ICI): +)
Cc1ccc(-c2c3c(cc4ccc(O)cc24)-c2ccc(O)cc2C3)cc1 [Compound 5e] | ++ (>40%: ++)
Oc1ccc2c(c1)Cc1c-2cc2ccc(O)cc2c1-c1ccc(F)c(Cl)c1 [Compound 5f] | + (>5% (relative to ICI): +)
Oc1ccc2c(c1)Cc1c-2cc2ccc(O)cc2c1-c1ccc2c(c1)OCO2 [Compound 5g] | + (>5% (relative to ICI): +)
Oc1ccc2c(c1)Cc1c-2cc2ccc(O)cc2c1-c1ccc(-c2ccccc2)cc1 [Compound 5h] | + (>5% (relative to ICI): +)
Oc1ccc2c(c1)Cc1c-2cc2ccc(O)cc2c1-c1cccc(F)c1 [Compound 5j] | + (>5% (relative to ICI): +)
COc1ccc(-c2c3c(cc4ccc(O)cc24)-c2ccc(O)cc2C3)cc1 [Compound 5k] | + (>5% (relative to ICI): +)
Oc1ccc2c(c1)Cc1c-2cc2ccc(O)cc2c1-c1ccc(F)cc1 [Compound 5l] | ++ (>40%: ++)
Oc1ccc2c(c1)Cc1c-2cc2ccc(O)cc2c1-c1ccc(Cl)c(Cl)c1 [Compound 5m] | ++ (>40%: ++)
Oc1ccc2c(c1)Cc1c-2cc2ccc(O)cc2c1-c1cccc(Cl)c1 [Compound 5n] | + (>5% (relative to ICI): +)
Oc1ccc2c(c1)Cc1c-2cc2ccc(O)cc2c1-c1ccc(C(F)(F)F)cc1 [Compound 5o] | + (>5% (relative to ICI): +)
Cc1cccc(-c2c3c(cc4ccc(O)cc24)-c2ccc(O)cc2C3)c1 [Compound 5p] | + (>5% (relative to ICI): +)
CC(C)c1cccc(-c2c3c(cc4ccc(O)cc24)-c2ccc(O)cc2C3)c1 [Compound 5q] | + (>5% (relative to ICI): +)
Oc1ccc2c(c1)Cc1c-2cc2ccc(O)cc2c1-c1ccc(OC(F)(F)F)cc1 [Compound 5r] | ++ (>40%: ++)
Oc1ccc2c(c1)Cc1c-2cc2ccc(O)cc2c1-c1ccc(-c2ccccc2)c(F)c1 [Compound 5s] | + (>5% (relative to ICI): +)
Oc1ccc2c(c1)Cc1c-2cc2ccc(O)cc2c1-c1ccccc1C(F)(F)F [Compound 5u] | ++ (>40%: ++)
Oc1ccc2c(c1)Cc1c-2cc2ccc(O)cc2c1-c1ccccc1 [Compound 5v] | + (>5% (relative to ICI): +)
Oc1ccc2c(c1)Cc1c-2cc2ccc(O)cc2c1-c1ccc(OCCN2CCCCC2)cc1 [Compound 9] | ++ (>40%: ++)
